Structures are written as SMILES.

Assay [1] deals with CT26 colon carcinoma cell line. The assay is described as follows: Tumor growth and density model. As to conditions: 10 mg/kg daily oral gavage for 13 days from day 6 post tumor-cell injection. It is filed as in vivo, mouse. On the procedure: (§1) Wild type six-weeks-old male Balb/c mice obtained from the vivarium Fundacion Ciencia & Vida Chile (Santiago, Chile) were used. Mice were housed in independent plastic cages in a room maintained at 25° C. with a 12-h:12-h light:dark cycle.
1×10^6 CT26 colon carcinoma cell line (ATCC #CRL-2638, ATCC Manassas, Va.) were injected subcutaneously in the right lower flank of each animal as described (Nat Commun. 2012 Jun. 12; 3:896). Non-injected animals were used as controls. At day 6 post tumor-cell injection, mean tumor volume was about 100 mm^3, animals were weighed and randomized into two groups and treated with 10 mg/kg of compound 3 formulated in 50% Polyethylene glycol (PEG-400) in distilled water, or with vehicle (50% PEG-400 in distilled water) by daily oral gavage for 13 days.
At the end of the study, tumors were measured with digital caliper and tumors volumes, expressed in mm^3, were calculated with the following formula: Tumor volume (mm^3)=(a×b^2)/2 where “a” is the largest perpendicular diameter and “b” is the smallest diameter. Animals were then sacrificed and tumors were extracted and weighed. The volumes and weight of the tumors of each animal are shown in FIGS. 12A and 12B respectively. Bars represent mean±SEM. Statistical analyses were performed using GraphPad Prism software and significant difference was assessed by t test (*<0.05).

Assay [2] concerns Balb/c mice with immobilized hindlimb. The assay is described as follows: Immobilization-induced muscle atrophy. Conditions: 10 mg/kg oral, 3 days immobilization. Format: in vivo, mouse. On the procedure:
Wild type eight-weeks-old male Balb/c mice obtained from the vivarium Fundacion Ciencia & Vida Chile (Santiago, Chile) were used. Mice were housed in independent plastic cages, fed ad libitum in a room maintained at 25° C. with a 12-h:12-h light:dark cycle.
Twenty-four hours before and during the 3 days of immobilization procedures, animals received oral administration via feeding tubes (15 gauge) of vehicle (50% Polyethylene glycol 400 (Sigma-Aldrich P3265) in distilled water or 10 mg/kg of compound 3 formulated in vehicle.
One hindlimb was immobilized with a plastic stick placed over and under the limb and fixed with a medical adhesive bandage. Animals were daily monitored. The immobilization procedure prevented movement of the immobilized leg alone. After 3 days, the animals were sacrificed and gastrocnemius, quadriceps and tibialis anterior muscles were removed from both hindlimbs, the contralateral, non-immobilized leg being used as an internal control. […]
(§2) Upon collection, muscles were immediately frozen in liquid nitrogen and then stored at −80° C. […] Protein concentration in supernatants was determined using BCA Protein Assay Kit (Pierce). […]
Puromycin (12D10) (Merck Millipore) and β-actin (Sigma-Aldrich) antibodies were used as primary antibodies. […] Quantification of protein bands was done by densitometry using ImageJ software. […]

Assay [3] deals with Balb/c mice injected with CT26 colon carcinoma cell line. Nature of the assay: Cachexia-induced muscle atrophy (CT26 tumor cells). Format: in vivo, mouse. As to conditions: 10 mg/kg daily oral gavage for 13 days. The protocol:
as §1
1×10^6 CT26 colon carcinoma cell line (ATCC #CRL-2638, ATCC Manassas, Va.) were injected subcutaneously in the right lower flank of each animal for induction of cachexia-induced muscle atrophy as described (Nat Commun. 2012 Jun. 12; 3:896). Non-injected animals were used as controls. At day 6 post tumor-cell injection, animals were randomized into two groups and treated with 10 mg/kg of compound 3 formulated in 50% Polyethylene glycol (PEG-400) in distilled water, or with vehicle (50% PEG-400 in distilled water) by daily oral gavage for 13 days.
For in vivo measurements of protein synthesis, 30 min before the study ends, animals were injected intraperitoneally with puromycin (Sigma-Aldrich, P8833) at 0.04 μmol/g body weight in a volume of 200 μL of PBS. […]
as §2
Puromycin (12D10) (Merck Millipore) and β-actin (Sigma-Aldrich) antibodies were used as primary antibodies. […] Quantification of protein bands was done by densitometry using ImageJ software.

Assay [4] concerns ATF4. The assay is described as follows: ATF4 expression inhibition assay (thapsigargin-stressed HEK293T cells, western blot). It is filed as cell-based. Conditions: Homo sapiens, HEK-293T. Summed up: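 HEK293T cells treated with thapsigargin (Tg) plus test compound (100 nM or 1 μM) for 3 hours, then lysed; ATF4 measured by western blot with ECL and densitometry. % inhibition normalized to Tg alone (0%) and untreated cells (100%); IC50 also calculated.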

By IC50 is commonly meant the concentration needed to halve the response being measured. Low values mean inhibition by little substance, high ones a need for much substance. The term inhibition denotes the percentage by which the read-out fell short of the control. Read a high inhibition as a strong effect. Take `O=C(COc1ccc(Cl)cc1)N[C@H]1CC[C@H](NC[C@@H](O)COc2ccc(Cl)cc2)CC1` (single isomer, unassigned) [Compound 3, (+)-2-(4-chlorophenoxy)-N-(4-((3-(4-chlorophenoxy)-2-hydroxypropyl)amino)cyclohexyl)acetamide]: in assay [1], the “tumor density (weight/volume ratio)” value was “significantly reduce the tumor density” and the tumor volume entry is reported as “does not reduce tumor volume”. Besides, the “protein synthesis in immobilized hindlimb muscle” value in assay [2] (gastrocnemius) was “partial recovery of protein synthesis”. Further, the “protein synthesis in immobilized hindlimb muscle” value in assay [2] (tibialis anterior and quadriceps) was “complete recovery of protein synthesis”. Besides, the “muscle weight (gastrocnemius, quadriceps, tibialis anterior)” value in assay [3] is “prevented the CT26-induced muscle weight loss”. Moreover, in assay [3] (quadriceps and tibialis anterior, versus vehicle), the “protein synthesis in muscle” value is reported as “significantly increase protein synthesis”. This molecule displayed an IC50 in assay [4] (3 h with 100 nM Tg, test compound 1 nM to 1 μM) of 145 nM. The molecule further yielded an inhibition at 0.1 µM in assay [4] (3 h with 100 nM thapsigargin (Tg) and 100 nM test compound, Tg alone 0%, untreated 100%) of 35%. The molecule further yielded an inhibition at 1 µM in assay [4] (3 h with 100 nM thapsigargin (Tg) and 1 μM test compound, Tg alone 0%, untreated 100%) of 77%.

The values above are taken from patent US11230542B2, “Inhibitors of integrated stress response pathway” (Praxis Biotech LLC, priority 2017, dated 2022).
